Target: T1, COL3 (Mus musculus, UniProt P08121)
T1 construct: from tissue; host or cells: infarcted left-ventricular myocardium of female CD1 mice, in vivo
T1 sequence (P08121 155-1219 limits assumed): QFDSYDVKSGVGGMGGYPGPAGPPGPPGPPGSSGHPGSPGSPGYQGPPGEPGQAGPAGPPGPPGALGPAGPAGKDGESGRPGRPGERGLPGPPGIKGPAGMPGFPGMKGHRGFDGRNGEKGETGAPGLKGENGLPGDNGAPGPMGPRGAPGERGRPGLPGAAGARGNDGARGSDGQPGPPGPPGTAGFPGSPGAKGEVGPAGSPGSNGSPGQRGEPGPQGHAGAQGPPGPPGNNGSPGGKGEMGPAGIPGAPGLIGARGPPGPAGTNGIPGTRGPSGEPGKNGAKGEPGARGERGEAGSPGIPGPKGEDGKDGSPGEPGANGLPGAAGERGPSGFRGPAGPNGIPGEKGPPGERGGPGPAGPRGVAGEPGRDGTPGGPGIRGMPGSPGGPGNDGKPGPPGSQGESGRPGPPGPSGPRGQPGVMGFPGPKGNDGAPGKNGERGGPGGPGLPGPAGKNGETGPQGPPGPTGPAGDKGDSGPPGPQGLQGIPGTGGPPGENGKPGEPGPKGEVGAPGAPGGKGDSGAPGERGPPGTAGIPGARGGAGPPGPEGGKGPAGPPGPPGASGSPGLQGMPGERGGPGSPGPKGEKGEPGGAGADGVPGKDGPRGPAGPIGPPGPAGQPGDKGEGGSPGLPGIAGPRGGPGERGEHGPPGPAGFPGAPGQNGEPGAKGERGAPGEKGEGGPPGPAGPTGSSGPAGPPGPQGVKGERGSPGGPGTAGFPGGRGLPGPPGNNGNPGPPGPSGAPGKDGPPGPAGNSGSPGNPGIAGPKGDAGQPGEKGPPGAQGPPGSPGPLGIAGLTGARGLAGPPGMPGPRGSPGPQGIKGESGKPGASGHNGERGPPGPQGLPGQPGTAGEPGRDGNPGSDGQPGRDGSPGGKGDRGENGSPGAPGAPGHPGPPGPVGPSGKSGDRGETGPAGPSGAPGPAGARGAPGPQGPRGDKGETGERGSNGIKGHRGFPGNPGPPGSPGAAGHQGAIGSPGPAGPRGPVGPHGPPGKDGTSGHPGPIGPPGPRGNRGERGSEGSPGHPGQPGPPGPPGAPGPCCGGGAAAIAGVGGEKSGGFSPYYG
Assay: In vivo MRI of the aortic wall in a murine model of vascular remodelling
Conditions: ApoE−/− mice after aortic injury and 12 weeks high-fat diet, i.v. 0.2 mmol/kg, LGE MRI at 3 T up to 2 h post-injection
From the text: Male ApoE^−/− mice were bred in-house and underwent surgery at 8–10 weeks of age (n = 6). Mice were anesthetised with 4% isoflurane mixed with 1% medical oxygen and anaesthesia was maintained at 2% during the surgery as previously reported. Briefly, mice underwent a laparotomy to expose the abdominal aorta, renal and iliac arteries. Two ligatures were inserted around the aorta (surgical silk, size 4–0, Aragó, Zaragoza, Spain), the first below the renal arteries and the second above the iliac bifurcation. A 30 G needle was introduced into the abdominal aorta at the level of the iliac bifurcation, via an aortic puncture. 1 mL of saline was infused into the aorta in three boluses. Finally, the needle was removed, and the puncture was repaired. The muscle and skin incisions were sutured (5-0 Vicryl, Ethicon Inc, Somerville, NJ), and the animals were allowed to recover. Mice were switched to a high-fat diet (HFD) containing 21% fat from lard and 0.15% (wt/wt) cholesterol (Special Diets Services, Witham, United Kingdom), on day 2 post-surgery for 12 weeks prior to the imaging experiments.
Anaesthesia was induced with 4% and maintained with 1–2% isoflurane during the MRI experiments. Mice (n = 3 per group) were placed supine on a single-loop surface coil (diameter = 47 mm) and the abdominal aorta was imaged up to 2 h post-injection of the monomeric (i.v. 0.2 mmol/kg, 0.2 mmol/kg Gd), the next day with the corresponding tetrameric collagen-binding probe (i.v 0.2 mmol/kg, 0.8 mmol/kg Gd) and the 3rd day using the scrambled probes (n = 2–3 per probe; i.v. 0.2 mmol/kg). This timeline ensures complete washout of one probe from the tissue before the administration of another probe. […]

Substance | signal enhancement of the remodelled aortic wall (in words)
Ac-C-RDKKVAEQS [[Gd-DOTAMA]4-SccCBP1, scrambled tetrameric Gd probe (Ac-C-…), negative control] | No signal enhancement
Ac-C-TEFPLRMRDWLKN [[Gd-DOTAMA]4-CBP2, tetrameric probe: tri-lysine scaffold bearing four Gd-DOTAMA units conjugated at the N-terminus of CBP2] | stronger enhancement at 60 min compared with corresponding monomeric probes
